Some test systems named below: 786-0; CAKI-1; COLO 205; DU-145; HCT-116; HCT-15; HL-60; LOX IMVI; MCF7; MDA-MB-231; MDA-N; MOLT-4; NCI-H226; NCI-H460; OVCAR-3; OVCAR-5; PC-3; SF-268; SK-MEL-28; TK-10.
Holding throughout (assay): growth of human tumour cells (NCI), 48 h

SMILES strings stand for the structures.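 These data come from cells grown in 96-well plates and exposed to compound for 48 hours at five concentrations. Abbreviation: GI50, concentration required for 50% inhibition of growth.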 The source made the active and inactive calls. No stated cut-off is given here; in the data, active = GI50 up to about 1.1 µM and inactive = higher.

These results are taken from ChEMBL document CHEMBL1201862, “PubChem BioAssay data set” (2004).

With `O=[N+]([O-])c1c(F)c(F)c2c(c1F)Nc1ccccc1S2`, the GI50 in the assay with 786-0 was 8.24 µM (inactive); with CAKI-1, 3.99 µM (inactive); in the assay with COLO 205 it was 13.9 µM (inactive); with DU-145 it was 4.06 µM (inactive); with HCT-116, 2.47 µM (inactive); in the assay with HCT-15, 4.83 µM. In addition, the GI50 was 4.29 µM (inactive) with HL-60; 1.86 µM (inactive) in the assay on LOX IMVI; 5 µM (inactive) in the assay with MCF7; 2.27 µM (inactive) with MDA-MB-231; 4.42 µM (inactive) in the assay with MDA-N; 2.61 µM (inactive) with MOLT-4. Further, the GI50 in the assay with NCI-H226 was 16.9 µM (inactive); in the assay on NCI-H460, 6 µM (inactive); in the assay with OVCAR-3, 2.03 µM (inactive); with OVCAR-5, 13 µM (inactive); with PC-3 it was 9.16 µM (inactive); in the assay on SF-268, 2.49 µM (inactive). The GI50 in the assay on SK-MEL-28 is 2.51 µM (inactive); in the assay on TK-10, 23.8 µM (inactive).

In the case of `CCCCCCCCCCCCCCCCCCOC(COP(=O)(O)OCC1OC(n2cc(F)c(=O)[nH]c2=O)CC1O)COP(=O)(O)OCC1OC(n2ccc(N)nc2=O)C(O)C1O` (stereo not given), the GI50 in the assay with 786-0 is 2.82 µM (inactive); with CAKI-1, 13.2 µM (inactive); in the assay with COLO 205, 20.8 µM (inactive); in the assay on DU-145 it was 3.33 µM (inactive); with HCT-116, 6.19 µM (inactive); in the assay with HCT-15, 31.4 µM. The GI50 in the assay with HL-60 is 3.66 µM (inactive); with LOX IMVI, 1.14 µM (inactive); in the assay with MCF7 it was 2.37 µM (inactive); with MDA-MB-231 it was > 100 µM (inactive); with MDA-N, > 95.5 µM (inactive); in the assay with MOLT-4, 1.72 µM (inactive). Besides, the GI50 is > 87.1 µM (inactive) in the assay with NCI-H226; 0.159 µM (active) in the assay on NCI-H460; > 100 µM (inactive) in the assay with OVCAR-3; 66.8 µM (inactive) in the assay with OVCAR-5; 15.6 µM (inactive) with PC-3; 0.536 µM (active) in the assay on SF-268. The GI50 in the assay with SK-MEL-28 is 64.6 µM (inactive); with TK-10, 33.2 µM (inactive).

Turning to `CCCCCCOc1ccc(C(=O)NO)cc1`, the GI50 in the assay on 786-0 is 3.68 µM (inactive); in the assay on CAKI-1, 4.44 µM (inactive); in the assay with COLO 205 it was 9.51 µM (inactive); with DU-145, 8.05 µM (inactive); with HCT-116 it was 8.53 µM (inactive); in the assay with HCT-15, 1.61 µM. The GI50 was 1.81 µM (inactive) in the assay on HL-60; 2.17 µM (inactive) in the assay on LOX IMVI; 25.8 µM (inactive) in the assay with MCF7; 11 µM (inactive) with MDA-MB-231; 13.2 µM (inactive) in the assay on MDA-N; 1.07 µM (active) in the assay on MOLT-4. Moreover, the GI50 in the assay on NCI-H226 is 9.46 µM (inactive); in the assay with NCI-H460 it was 4.68 µM (inactive); in the assay on OVCAR-3, 6.03 µM (inactive); in the assay with OVCAR-5, 11.6 µM (inactive); in the assay with PC-3, 9.51 µM (inactive); with SF-268 it was 5.64 µM (inactive). Further, the GI50 was 16 µM (inactive) in the assay on SK-MEL-28 and 17.1 µM (inactive) in the assay on TK-10.

For `COC(=O)c1c(O)ccc2c1c1c(n2Cc2ccccc2)C(=O)c2ccccc2C1=O`, the GI50 in the assay on 786-0 was 18.2 µM (inactive); in the assay with CAKI-1, 18.7 µM (inactive); in the assay with COLO 205, 1.8 µM (inactive); with DU-145 it was 18.3 µM (inactive); in the assay on HCT-116, 14.2 µM (inactive); with HCT-15 it was 12.6 µM. Moreover, the GI50 in the assay with HL-60 is 18.3 µM (inactive); in the assay on LOX IMVI, 15.6 µM (inactive); in the assay on MCF7, 12.1 µM (inactive); in the assay on MDA-MB-231, 16.2 µM (inactive); in the assay with MDA-N it was 20.1 µM (inactive); with MOLT-4 it was 4.88 µM (inactive). For the same compound, the GI50 in the assay with NCI-H226 was 18.3 µM (inactive); with NCI-H460 it was 10.7 µM (inactive); in the assay with OVCAR-3 it was 16.7 µM (inactive); in the assay on OVCAR-5, 20.9 µM (inactive); with PC-3, 13.7 µM (inactive); with SF-268 it was 14.8 µM (inactive). The GI50 in the assay with SK-MEL-28 is 17.5 µM (inactive); with TK-10, 17.1 µM (inactive).

With `CCCCCCCCCCCCCCCCCCNc1ccn(C2OC(COP(=O)(O)OCC3OC(n4cc(F)c(NCCCCCCCCCCCCCCCCCC)nc4=O)CC3O)C(O)C2O)c(=O)n1` (stereo not given), the GI50 in the assay with 786-0 is > 100 µM (inactive); in the assay with CAKI-1, > 100 µM (inactive); with COLO 205, > 100 µM (inactive); in the assay with DU-145, > 100 µM (inactive); with HCT-116, > 100 µM (inactive); with HCT-15, more than 100 µM. The GI50 was > 100 µM (inactive) with HL-60; > 100 µM (inactive) with LOX IMVI; > 100 µM (inactive) with MCF7; 78.9 µM (inactive) in the assay on MDA-MB-231; > 100 µM (inactive) in the assay with MDA-N; > 100 µM (inactive) in the assay with MOLT-4. Further, the GI50 with NCI-H226 is > 100 µM (inactive); in the assay with NCI-H460, > 100 µM (inactive); in the assay with OVCAR-3, > 100 µM (inactive); in the assay with OVCAR-5, > 100 µM (inactive); with PC-3, 56.8 µM (inactive); with SF-268, > 100 µM (inactive). Also, the GI50 in the assay on SK-MEL-28 and with TK-10 was > 100 µM (inactive) each time.

For the compound `C=C(CCC(=O)N(CCc1c[nH]c2ccccc12)C(=O)c1ccccc1CSCC)C(=O)OC`, the GI50 was 50 µM (inactive) with 786-0; 84.1 µM (inactive) in the assay on CAKI-1; 20.9 µM (inactive) in the assay on COLO 205; > 95.5 µM (inactive) in the assay with DU-145; 7.19 µM (inactive) in the assay on HCT-116; 26.5 µM in the assay on HCT-15. Also, the GI50 in the assay on HL-60 was 3.46 µM (inactive); with LOX IMVI it was 29.2 µM (inactive); with MCF7, 19.9 µM (inactive); with MDA-MB-231 it was 30.1 µM (inactive); with MDA-N, 38.4 µM (inactive); in the assay with MOLT-4, 4.02 µM (inactive). The GI50 is 53.7 µM (inactive) with NCI-H226; 32.2 µM (inactive) in the assay on NCI-H460; > 39.5 µM (inactive) in the assay with OVCAR-3; > 100 µM (inactive) in the assay on OVCAR-5; 23.2 µM (inactive) in the assay on PC-3; > 77.3 µM (inactive) with SF-268. Moreover, the GI50 in the assay with SK-MEL-28 was > 100 µM (inactive); in the assay on TK-10 it was 66.5 µM (inactive).

As to `Cn1c(=O)c2c(nc3sc4ccccc4c(=O)n32)n(C)c1=O`, the GI50 with 786-0 was > 100 µM (inactive); with CAKI-1 it was > 100 µM (inactive); with COLO 205 it was > 100 µM (inactive); in the assay on DU-145, > 100 µM (inactive); in the assay with HCT-116, > 100 µM (inactive); with HCT-15, more than 100 µM. The GI50 in the assay with HL-60, with LOX IMVI, with MCF7, in the assay on MDA-MB-231, in the assay with MDA-N and in the assay with MOLT-4 was > 100 µM (inactive) throughout. Moreover, the GI50 with NCI-H226, with NCI-H460, in the assay with OVCAR-3, in the assay with OVCAR-5, with PC-3 and with SF-268 was > 100 µM (inactive) each time. For the same compound, the GI50 with SK-MEL-28 and with TK-10 was > 100 µM (inactive) in each case.

`CC(=O)/C(=C\Nc1c(C)n(C)n(C)c1=O)C(=O)c1ccccc1`: the GI50 in the assay with 786-0 was > 50 µM (inactive); in the assay on CAKI-1 it was > 50 µM (inactive); in the assay with COLO 205 it was > 50 µM (inactive); in the assay on DU-145, > 50 µM (inactive); with HCT-116, > 50 µM (inactive); in the assay on HCT-15, more than 50 µM. For the same compound, the GI50 in the assay on HL-60, with LOX IMVI, with MCF7, with MDA-MB-231, in the assay with MDA-N and in the assay with MOLT-4 was > 50 µM (inactive) in each case. Moreover, the GI50 with NCI-H226, with NCI-H460, with OVCAR-3, in the assay on OVCAR-5, in the assay on PC-3 and in the assay on SF-268 was > 50 µM (inactive) throughout. In addition, the GI50 with SK-MEL-28 and with TK-10 was > 50 µM (inactive) in each case.

Consider `CC[C@@]1(O)C(=O)OCc2c1cc1n(c2=O)Cc2c-1nc1ccccc1c2/C=N\NC(=O)C1CCCN1` (stereo not given in full), for which the GI50 with 786-0 is 0.0461 µM (active); with CAKI-1, 0.254 µM (active); in the assay with COLO 205 it was 6.05 µM (inactive); in the assay on DU-145, 0.133 µM (active); in the assay with HCT-116, 0.354 µM (active); in the assay on HCT-15, 1.31 µM. Also, the GI50 was 0.046 µM (active) in the assay on HL-60; 0.09 µM (active) with LOX IMVI; < 0.0177 µM (active) with MCF7; 14.7 µM (inactive) in the assay on MDA-MB-231; 1.8 µM (inactive) with MDA-N; 0.221 µM (active) in the assay on MOLT-4. The GI50 in the assay on NCI-H226 was 0.117 µM (active); in the assay with NCI-H460 it was 0.266 µM (active); with OVCAR-3 it was 4.42 µM (inactive); with OVCAR-5, 4.93 µM (inactive); in the assay on PC-3 it was 2.47 µM (inactive); in the assay on SF-268 it was < 0.0225 µM (active). Also, the results for the GI50 with SK-MEL-28 and in the assay on TK-10 were 6.58 µM (inactive) and 19.4 µM (inactive), respectively.

As to `O=C(O)/C=C/c1c2ccc(=O)c(O)c-2oc2c(O)c(O)ccc12`, the GI50 is 18.9 µM (inactive) in the assay with 786-0; > 100 µM (inactive) with CAKI-1; > 100 µM (inactive) with COLO 205; > 100 µM (inactive) with DU-145; 17 µM (inactive) with HCT-116; 61.9 µM with HCT-15. Also, the GI50 was 82.2 µM (inactive) in the assay on HL-60; 23 µM (inactive) with LOX IMVI; 17.2 µM (inactive) in the assay with MCF7; 20.8 µM (inactive) in the assay on MDA-MB-231; 16.1 µM (inactive) in the assay on MDA-N; 18.9 µM (inactive) with MOLT-4. For the same compound, the GI50 in the assay with NCI-H226 was 70.8 µM (inactive); in the assay on NCI-H460, > 100 µM (inactive); in the assay on OVCAR-3 it was 45 µM (inactive); with OVCAR-5, 78.2 µM (inactive); in the assay with PC-3, > 100 µM (inactive); in the assay on SF-268 it was > 100 µM (inactive). Also, the GI50 in the assay with SK-MEL-28 and in the assay on TK-10 was > 100 µM (inactive) each time.
